According to US20120015344A1, “Methods, compositions, and apparatus for the detection of viral strains” (priority 2010, published 2012):
Values joined by “and” are separate entries in the source; they are usually repeats but may differ in a detail not shown here. Identical values can stand only once. “Also recorded” adds a separate entry of the source. Like-named read-outs stand apart in the source and are kept apart here. Marks after values point to notes of the source that are not given here.

Assays:
[1] = tested on: H5 Hemagglutinin (HA) Protein from Influenza Virus, A/Vietnam/1203/04 (H5N1); format: binding, Influenza A virus H5N1 (A/Vietnam/1203/04)
[2] = tested on: H5N1; details: cited from earlier work
[3] = target: T1, H1 hemagglutinin (HA) protein, A/South Carolina/1/18 (H1N1) (Influenza A virus, UniProt Q9WFX3); format: binding, Influenza A virus H1N1 (A/South Carolina/1/18)
T1 sequence (Q9WFX3 18-566 limits assumed): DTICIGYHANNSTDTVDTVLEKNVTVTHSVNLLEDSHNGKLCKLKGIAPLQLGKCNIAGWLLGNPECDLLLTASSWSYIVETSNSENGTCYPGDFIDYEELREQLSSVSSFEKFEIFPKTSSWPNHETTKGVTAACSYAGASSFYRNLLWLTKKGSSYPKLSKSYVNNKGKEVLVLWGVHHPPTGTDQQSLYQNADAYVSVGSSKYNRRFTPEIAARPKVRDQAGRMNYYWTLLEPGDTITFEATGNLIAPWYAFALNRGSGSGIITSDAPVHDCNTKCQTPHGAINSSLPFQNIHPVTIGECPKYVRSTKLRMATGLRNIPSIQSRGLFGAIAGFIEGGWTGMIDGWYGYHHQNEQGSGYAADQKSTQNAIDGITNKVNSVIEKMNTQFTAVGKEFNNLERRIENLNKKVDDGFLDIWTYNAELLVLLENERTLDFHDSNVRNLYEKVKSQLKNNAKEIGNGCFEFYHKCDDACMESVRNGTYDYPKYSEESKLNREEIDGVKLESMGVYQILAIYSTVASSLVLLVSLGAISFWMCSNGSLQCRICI

[4] = tested on: H5 Hemagglutinin (HA) Protein from Influenza Virus, A/Vietnam/1203/04 (H5N1); format: binding, Influenza A virus H5N1 (A/Vietnam/1203/04); remark: listed apart in the source
[5] = target: T1, H1 hemagglutinin (HA) protein, A/South Carolina/1/18 (H1N1); format: binding, Influenza A virus H1N1 (A/South Carolina/1/18); remark: listed apart in the source

Neu5Acα2-3Galβ1-4GlcNAcβ-SpNH-LC-LC-Biotin [3′SLN]
binding between H5 and glycan (avidity, from ΔQ) [1]: statistically higher avidity; also recorded: high avidity of binding | Predicted to Bind H5N1 [2]: Yes

Neu5Acα2-3Galβ1-4[Fucα1-3]GlcNAcβ-SpNH-LC-LC-Biotin [3′SLe^x]
Mean ΔQ ± S.D. (n = 3) [3]: 0.08906 ± 0.0045^b mC and 0.1186 ± 0.0180^b mC | binding between H5 and glycan (avidity, from ΔQ) [4]: high avidity of binding | Mean ΔQ ± S.D. (n = 3) [5]: 0.2259 ± 0.0115^f mC and 0.2974 ± 0.0001^f mC | Predicted to Bind H5N1 [2]: Yes

Neu5Acα2-3[GalNAcβ1-4]Galβ1-4GlcNAcβ-SpNH-LC-LC-Biotin [CT/Sda]
Predicted to Bind H5N1 [2]: No

Neu5Acα2-3[Galβ1-4GlcNAcβ1-3]2β-SpNH-LC-LC-Biotin [3′S-Di-LN]
Predicted to Bind H5N1 [2]: Yes

Neu5Acα2-6Galβ1-4GlcNAcβ-SpNH-LC-LC-Biotin [6′SLN]
Mean ΔQ ± S.D. (n = 3) [1]: 0.1388 ± 0.0056^h mC | binding between H5 and glycan (avidity, from ΔQ) [1]: statistically lower binding | Predicted to Bind H5N1 [2]: No

Neu5Acα2-6[Galβ1-4GlcNAcβ1-3]2β-SpNH-LC-LC-Biotin [6′S-Di-LN]
Predicted to Bind H5N1 [2]: No

Neu5Acα2-8Neu5Acα2-8Neu5Acα2-3Galβ1-4Glcβ-SpNH-LC-LC-Biotin [GT3]
Mean ΔQ ± S.D. (n = 3) [4]: 0.2881 ± 0.0172^f mC | binding between H5 and glycan (avidity, from ΔQ) [4]: statistically lower binding | Predicted to Bind H5N1 [2]: No
